Measured values: ChEMBL document CHEMBL1137039, “Synthesis and structure-activity relationships of uracil derived human GnRH receptor antagonists: (R)-3-[2-(2-amino)phenethyl]-1-(2,6-difluorobenzyl)-6-methyluracils containing a substituted thiophene or thiazole at C-5” (Bioorg Med Chem Lett, 2004)

Target: T1, Gonadotropin-releasing hormone receptor (Homo sapiens, UniProt P30968)
T1 sequence (P30968 whole entry): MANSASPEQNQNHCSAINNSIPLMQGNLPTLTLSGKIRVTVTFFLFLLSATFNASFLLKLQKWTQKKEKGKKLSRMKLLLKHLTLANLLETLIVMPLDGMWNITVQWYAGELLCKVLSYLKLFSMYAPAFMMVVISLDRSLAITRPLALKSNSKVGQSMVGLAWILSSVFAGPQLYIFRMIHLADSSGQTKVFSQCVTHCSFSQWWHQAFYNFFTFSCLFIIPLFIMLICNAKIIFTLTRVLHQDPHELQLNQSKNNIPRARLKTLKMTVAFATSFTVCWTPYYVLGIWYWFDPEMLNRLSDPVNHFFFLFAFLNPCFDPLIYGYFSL
Experiment: Binding affinity towards cloned human Gonadotropin-releasing hormone receptor expressed in RBL cells was determined by using [125I]GnRH as radioligand
Type: cell-based

Row | Ki | SMILES
1 | 15 nM | Cc1c(-c2csc(-c3ccc(Cl)cc3)n2)c(=O)n(C[C@H](N)c2ccccc2)c(=O)n1Cc1c(F)cccc1F
2 | 14 nM | Cc1c(-c2ccc(Cl)cc2)c(=O)n(C[C@H](N)c2ccccc2)c(=O)n1Cc1c(F)cccc1F
3 | 70 nM | Cc1c(-c2csc(Nc3ccccc3)n2)c(=O)n(C[C@H](N)c2ccccc2)c(=O)n1Cc1c(F)cccc1F
4 | 7 nM | CCOC(=O)Nc1ccc(-c2nc(-c3c(C)n(Cc4c(F)cccc4F)c(=O)n(C[C@H](N)c4ccccc4)c3=O)cs2)cc1
5 | 30 nM | Cc1c(-c2csc(-c3ccccc3Cl)n2)c(=O)n(C[C@H](N)c2ccccc2)c(=O)n1Cc1c(F)cccc1F
6 | 10 nM | Cc1c(-c2cccs2)c(=O)n(C[C@H](N)c2ccccc2)c(=O)n1Cc1c(F)cccc1F
7 | 35 nM | Cc1c(-c2csc(NCc3ccccc3)n2)c(=O)n(C[C@H](N)c2ccccc2)c(=O)n1Cc1c(F)cccc1F
8 | 49 nM | Cc1ccc(Nc2nc(-c3c(C)n(Cc4c(F)cccc4F)c(=O)n(C[C@H](N)c4ccccc4)c3=O)cs2)cc1
9 | 47 nM | Cc1c(-c2csc(-c3ccc(C(F)(F)F)cc3)n2)c(=O)n(C[C@H](N)c2ccccc2)c(=O)n1Cc1c(F)cccc1F
10 | 160 nM | Cc1c(-c2csc(Nc3ccc([N+](=O)[O-])cc3)n2)c(=O)n(C[C@H](N)c2ccccc2)c(=O)n1Cc1c(F)cccc1F
11 | 1500 nM | Cc1c(-c2csc(N3CCOCC3)n2)c(=O)n(C[C@H](N)c2ccccc2)c(=O)n1Cc1c(F)cccc1F
12 | 130 nM | Cc1ccc(Nc2nc(-c3c(C)n(Cc4c(F)cccc4F)c(=O)n(C[C@H](N)c4ccccc4)c3=O)cs2)c(C)c1
13 | 210 nM | Cc1ccccc1Nc1nc(-c2c(C)n(Cc3c(F)cccc3F)c(=O)n(C[C@H](N)c3ccccc3)c2=O)cs1
14 | 150 nM | Cc1c(-c2csc(-c3cccc(C(F)(F)F)c3)n2)c(=O)n(C[C@H](N)c2ccccc2)c(=O)n1Cc1c(F)cccc1F
15 | 120 nM | Cc1nc(-c2c(C)n(Cc3c(F)cccc3F)c(=O)n(C[C@H](N)c3ccccc3)c2=O)cs1
16 | 18 nM | Cc1ccc(-c2nc(-c3c(C)n(Cc4c(F)cccc4F)c(=O)n(C[C@H](N)c4ccccc4)c3=O)cs2)cc1
17 | 2 nM | Cc1c(-c2ccc(Cl)s2)c(=O)n(C[C@H](N)c2ccccc2)c(=O)n1Cc1c(F)cccc1F
18 | 33 nM | COc1ccc(Nc2nc(-c3c(C)n(Cc4c(F)cccc4F)c(=O)n(C[C@H](N)c4ccccc4)c3=O)cs2)cc1OC
19 | 20 nM | Cc1c(-c2csc(-c3ccc4c(c3)CCO4)n2)c(=O)n(C[C@H](N)c2ccccc2)c(=O)n1Cc1c(F)cccc1F
20 | 9 nM | Cc1c(-c2csc(Cc3ccccc3)n2)c(=O)n(C[C@H](N)c2ccccc2)c(=O)n1Cc1c(F)cccc1F
21 | 42 nM | COc1ccc(Nc2nc(-c3c(C)n(Cc4c(F)cccc4F)c(=O)n(C[C@H](N)c4ccccc4)c3=O)cs2)cc1
22 | 3 nM | Cc1ccc(-c2c(C)n(Cc3c(F)cccc3F)c(=O)n(C[C@H](N)c3ccccc3)c2=O)s1
23 | 270 nM | CCNc1nc(-c2c(C)n(Cc3c(F)cccc3F)c(=O)n(C[C@H](N)c3ccccc3)c2=O)cs1
24 | 130 nM | COc1ccccc1Nc1nc(-c2c(C)n(Cc3c(F)cccc3F)c(=O)n(C[C@H](N)c3ccccc3)c2=O)cs1
25 | 3000 nM | Cc1c(-c2csc(N)n2)c(=O)n(C[C@H](N)c2ccccc2)c(=O)n1Cc1c(F)cccc1F
26 | 500 nM | Cc1c(-c2csc(-c3ccc(C(C)(C)C)cc3)n2)c(=O)n(C[C@H](N)c2ccccc2)c(=O)n1Cc1c(F)cccc1F
27 | 34 nM | Cc1c(-c2csc(N(C)c3ccccc3)n2)c(=O)n(C[C@H](N)c2ccccc2)c(=O)n1Cc1c(F)cccc1F
28 | 49 nM | Cc1ccc(-c2nc(-c3c(C)n(Cc4c(F)cccc4F)c(=O)n(C[C@H](N)c4ccccc4)c3=O)cs2)cc1F
29 | 26 nM | Cc1c(-c2csc(-c3ccccc3)n2)c(=O)n(C[C@H](N)c2ccccc2)c(=O)n1Cc1c(F)cccc1F
30 | 42 nM | Cc1c(-c2csc(-c3ccc(F)cc3)n2)c(=O)n(C[C@H](N)c2ccccc2)c(=O)n1Cc1c(F)cccc1F

Test system: not listed separately
Experiment: In vitro intrinsic clearance after incubation with human liver microsomes (HLM)
Type: ADME, Microsome

Row | CLint scaled | SMILES
31 | 1700 mL/min/kg | COc1cccc(-c2c(C)n(Cc3c(F)cccc3F)c(=O)n(C[C@@H](C)N(C)Cc3ccccn3)c2=O)c1
32 | 46 mL/min/kg | Cc1c(-c2csc(-c3ccc(Cl)cc3)n2)c(=O)n(C[C@H](N)c2ccccc2)c(=O)n1Cc1c(F)cccc1F
33 | 36 mL/min/kg | Cc1ccc(-c2nc(-c3c(C)n(Cc4c(F)cccc4F)c(=O)n(C[C@H](N)c4ccccc4)c3=O)cs2)cc1
